# From US20230028441A1, “NOVEL HETEROARYL-TRIAZOLE COMPOUNDS AS PESTICIDES” (Bayer Aktiengesellschaft, priority 2019, published 2023)
# Columns and labels:
# Assay type in all cases: in vivo
# [1] = tested on: green peach aphid (Myzus persicae); experiment: Myzus persicae spray test; details: foliar, 120 h, after 5 days, Chinese cabbage leaf disks
# Experimental: Solvent: 78.0 parts by weight acetone • 1.5 parts by weight dimethylformamide
# (§1) Emulsifier: alkylarylpolyglycol ether
# (§2) To produce a suitable preparation of active compound, 1 part by weight of active compound is mixed with the stated amount of solvents and is diluted with water, containing an emulsifier concentration of 1000 ppm, to the desired concentration. Further test concentrations are prepared by dilution with emulsifier containing water.
# Chinese cabbage (Brassica pekinensis) leaf disks infected with all instars of the green peach aphid (Myzus persicae), are sprayed with a preparation of the active ingredient of the desired concentration.
# (§3) After 5 days mortality in % is determined. 100% means all aphids have been killed and 0% means none of the aphids have been killed.
# [2] = tested on: green peach aphid (Myzus persicae); experiment: Myzus persicae oral test; details: 120 h
# Experimental: Solvent: 100 parts by weight acetone
# To produce a suitable preparation of active compound, 1 part by weight of active compound is mixed with the stated amount of solvent, and the concentrate is diluted with water to the desired concentration.
# 50 μL compound solution is filled in microtiter plates and 150 μL IPL41 insect medium (33%+15% sugar) is added to obtain a total volume of 200 μL per well. Afterwards the plates are sealed with parafilm through which a mixed population of the green peach aphid (Myzus persicae) can suck on the compound preparation.
# as §3
# [3] = tested on: larvae of the southern green stink bug (Nezara viridula); experiment: Nezara viridula spray test; details: in Hordeum vulgare, 96 h
# How it was run: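 Percent mortality of southern green stink bug larvae read 4 days after spraying infested Hordeum vulgare. Test solutions: compound in acetone plus dimethylformamide, diluted with emulsifier-containing water (1000 ppm alkylarylpolyglycol ether).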
# [4] = tested on: larvae of the banded cucumber beetle (Diabrotica balteata); experiment: Diabrotica balteata spray test; details: 168 h, after 7 days, wheat seeds, read-out: efficacy (seedlings grown up); for pest or weed control at 32 µg/disc, 100 g/ha: 100 g/ha (=32 μg/well)
# How it was run: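 Efficacy (%) read at day 7: 100% means seedlings grew like untreated, uninfested controls; 0% means no seedlings grew. Wheat seeds germinated 1 day on agar, sprayed with emulsified compound solution (1000 ppm emulsifier in water), then each well infested with 10-20 larvae.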
# [5] = tested on: adult unfed cat fleas (Ctenocephalides felis); experiment: Ctenocephalides felis oral test; details: 48 h, 100 ppm in cattle blood, after 2 days
# How it was run: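 Percent flea mortality recorded at 2 days. Compound was dissolved in dimethyl sulfoxide and diluted into cattle blood, which ~20 unfed adult cat fleas ingested through parafilm from a 37°C-heated chamber, their own chamber kept at room temperature.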
# [6] = tested on: adult brown dog ticks (Rhipicephalus sanguineus); experiment: Rhipicephalus sanguineus in-vitro contact test with adult brown dog ticks; details: after 48 hours, read-out: efficacy (ticks dead or moribund); for pest or weed control at 1 µg/cm2, 100 g/ha: 1 μg/cm^2 (=100 g/ha); for pest or weed control at 5 µg/cm2, 500 g/ha: 5 μg/cm^2 (=500 g/ha)
# How it was run: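 Efficacy is the percentage of adult ticks dead or moribund, meaning immotile or uncoordinated and unable to escape 45-50° C. heat within 5 min. Read 48 h after 5-10 ticks were enclosed at room temperature in acetone-coated glass tubes. Dose 5 μg/cm^2, from a 900 ppm coating solution.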
# [7] = tested on: cattle tick larvae (Rhipicephalus microplus), strain Parkhurst, resistant against synthetic pyrethroids; experiment: Rhipicephalus (Boophilus) microplus in-vitro contact test, larval cattle tick; details: 5 μg/cm^2 (=500 g/ha), after 48 hours, read-out: efficacy (larvae dead or moribund)
# How it was run: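 Efficacy, 100% meaning all larvae dead or moribund, was judged at 48 h from loss of negative geotactic climbing. Larvae of the Parkhurst strain, 20–50 per tube, were exposed at 27° C and 85% humidity to acetone-coated tube surfaces; 900 ppm corresponded to 5 μg/cm^2.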
# [8] = tested on: fall armyworm larvae (Spodoptera frugiperda); experiment: Spodoptera frugiperda spray test (maize leaf sections); details: 168 h
# How it was run: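 Percent kill of Spodoptera frugiperda larvae was recorded 7 days after infesting dried, treated maize leaf sections. Spray solutions were made from an acetone/DMF compound preparation diluted with 1000 ppm emulsifier-containing water.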
# [9] = tested on: adult cat fleas (Ctenocephalides felis); experiment: Ctenocephalides felis in-vitro contact test, adult cat flea; details: 5 μg/cm^2 (=500 g/ha), after 48 hours, read-out: efficacy (fleas dead or moribund)
# Experimental: 9 mg compound is solved in 1 mL acetone and diluted with acetone to the desired concentration. 250 μL of the test solution is filled in 25 mL glass test tubes and homogeneously distributed on the inner walls by rotation and tilting on a shaking device (2 h at 30 rpm). With a compound concentration of 900 ppm, an inner surface of 44.7 cm^2 and a homogeneous distribution, a dose of 5 μg/cm^2 is achieved.
# After the solvent has evaporated, each test tube is filled with 5-10 adult cat fleas (Ctenocephalides felis), closed with a perforated lid and incubated in a lying position at room temperature and relative humidity. After 48 hours efficacy is determined. The fleas are patted on the ground of the tubes and are incubated on a heating plate at 45-50° C. for at most 5 minutes. Immotile or uncoordinated moving fleas, which are not able to escape the heat by climbing upwards, are marked as dead or moribund.
# An efficacy of 100% means all fleas are dead or moribund; 0% means no fleas are dead or moribund.
# [10] = tested on: adult engorged female ticks (Rhipicephalus microplus); experiment: Rhipicephalus (Boophilus) microplus injection test; details: 168 h, egg deposition after 7 days, read-out: efficacy (infertile eggs); for pest or weed control at 0.004 mg: 4 μg/animal
# How it was run: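 Efficacy is the share of infertile eggs: 100% means none are fertile, 0% means all are fertile. Egg deposition was checked 7 days after injecting 1 μL of DMSO-diluted compound into the abdomen of five engorged female R. microplus, with doubtful eggs kept about 42 days to hatching. The stock was 10 mg in 0.5 mL DMSO.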
# [11] = tested on: brown planthopper (Nilaparvata lugens); experiment: Nilaparvata lugens spray test; details: in Oryza sativa, 96 h
# Experimental: Solvent: 78.0 parts by weight of acetone • • 1.5 parts by weight of dimethylformamide
# as §1, §2
# Rice plants (Oryza sativa) are sprayed with a preparation of the active ingredient of the desired concentration and the plants are infested with the brown planthopper (Nilaparvata lugens).
# After 4 days mortality in % is determined. 100% means all planthoppers have been killed and 0% means none of the planthoppers have been killed.
Structure (SMILES),mortality at 500 g/ha [3],pest or weed control at 5 µg/cm2 [7],mortality at 100 g/ha [8],pest or weed control at 5 µg/cm2 [9],"pest or weed control at 32 µg/disc, 100 g/ha [4]",mortality at 500 g/ha [11],mortality at 100 g/ha [1],further results
"CC(NC(=O)c1cc(Cl)cc(S(C)(=O)=O)c1)c1nc([S+](C)[O-])nn1-c1ccc(Cl)cn1 (racemic) [I-061, 3-chloro-N-[1-[2-(5-chloro-2-pyridyl)-5-methylsulfinyl-1,2,4-triazol-3-yl]ethyl]-5-methylsulfonyl-benzamide]",100%,–,–,–,–,–,–,"mortality at 500 g/ha ([1]; 500 g/ha): 90%; mortality at 4 ppm [2]: 100%; mortality at 100 g/ha [3]: 100%; pest or weed control at 160 µg/disc, 500 g/ha ([4]; 500 g/ha (=160 μg/well)): 100%"
CC(NC(=O)c1cc(Cl)cc(C(F)(F)F)c1)c1nc(NC(=O)C2(Cl)CC2)nn1-c1ncccn1 (stereo not drawn) [I-022],–,90%,100%,100%,–,–,–,"mortality at 100 ppm [5]: 100%; pest or weed control at 1 µg/cm2, 100 g/ha [6]: 100%; pest or weed control at 5 µg/cm2, 500 g/ha [6]: 100%; mortality at 4 ppm [2]: 100%; pest or weed control at 0.004 mg [10]: 100%"
CC(=O)N(C)c1nc(C(C)NC(=O)c2cc(C(F)(F)F)cc(C(F)(F)F)c2)n(-c2ncccn2)n1 (stereo not drawn) [I-091],–,–,100%,100%,100%,–,–,mortality at 100 ppm [5]: 100%; mortality at 4 ppm [2]: 100%; pest or weed control at 0.004 mg [10]: 100%
CNc1nc(C(C)NC(=O)c2cc(Br)cc(Br)c2)n(-c2ncccn2)n1 (stereo not drawn) [I-100],–,100%,100%,100%,100%,–,–,"mortality at 100 ppm [5]: 100%; pest or weed control at 1 µg/cm2, 100 g/ha [6]: 100%; pest or weed control at 5 µg/cm2, 500 g/ha [6]: 100%; mortality at 4 ppm [2]: 100%; pest or weed control at 0.004 mg [10]: 100%"
CNc1nc(C(C)NC(=O)c2cc(Cl)cc(Br)c2)n(-c2ncccn2)n1 (stereo not drawn) [I-121],–,100%,100%,100%,100%,90%,–,mortality at 100 ppm [5]: 100%; pest or weed control at 0.004 mg [10]: 100%; pest or weed control at 0.02 mg ([10]; 20 μg/animal): 100%
CNc1nc([C@H](C)NC(=O)c2cc(Br)cc(Br)c2)n(-c2ncccn2)n1 [I-131],100%,100%,100%,100%,100%,90%,–,"pest or weed control at 1 µg/cm2, 100 g/ha [6]: 100%; pest or weed control at 5 µg/cm2, 500 g/ha [6]: 100%"
"C[C@H](NC(=O)c1cc(C(F)(F)F)cc(C(F)(F)F)c1)c1nc(N(C)C(=O)OC(C)(C)C)nn1-c1ncccn1 [I-133, tert-butyl N-[5-[(1S)-1-[[3,5-bis(trifluoromethyl)benzoyl]amino]ethyl]-1-pyrimidin-2-yl-1,2,4-triazol-3-yl]-N-methyl-carbamate]",100%,100%,100%,100%,100%,100%,–,–
CNc1nc([C@H](C)NC(=O)c2cc(Cl)cc(C(C)(C)C#N)c2)n(-c2ncccn2)n1 [I-137],100%,80%,100%,90%,100%,90%,–,–
"C[C@H](NC(=O)c1cc(C(F)(F)F)cc(C(F)(F)F)c1)c1nc(N(C)C)nn1-c1ncccn1 [I-141, N-[(1S)-1-[5-(dimethylamino)-2-pyrimidin-2-yl-1,2,4-triazol-3-yl]ethyl]-3,5-bis(trifluoromethyl)benzamide]",100%,100%,100%,100%,100%,100%,–,"pest or weed control at 1 µg/cm2, 100 g/ha [6]: 80%; pest or weed control at 5 µg/cm2, 500 g/ha [6]: 100%"
CON(C)c1nc([C@H](C)NC(=O)c2cc(C(F)(F)F)cc(S(C)(=O)=O)c2)n(-c2ncccn2)n1 [I-153],100%,–,–,–,–,100%,90%,–
CON(C)c1nc([C@H](C)NC(=O)c2cc(Cl)cc(C(C)(C)C#N)c2)n(-c2ncccn2)n1 [I-163],100%,–,100%,–,100%,100%,100%,–
CC(NC(=O)c1cc(C(F)(F)F)cc(C(F)(F)F)c1)c1nc(N(C)C)nn1-c1ncc(Cl)cn1 (stereo not drawn) [I-165],100%,–,100%,–,100%,100%,90%,–
C[C@H](NC(=O)c1cc(Cl)cc(C(C)(C)C#N)c1)c1nc(N(C)C)nn1-c1ncc(Cl)cn1 [I-178],100%,–,100%,–,100%,100%,90%,–
C[C@H](NC(=O)c1cc(Cl)cc(S(C)(=O)=O)c1)c1nc(N(C)C)nn1-c1ncc(Cl)cn1 [I-179],100%,–,100%,–,100%,100%,90%,–
CNc1nc([C@H](C)NC(=O)c2cc(OC(F)(F)F)cc(S(=O)(=O)C3CC3)c2)n(-c2ncccn2)n1 [I-184],100%,–,–,–,100%,100%,90%,–
C[C@H](NC(=O)c1cc(OC(F)(F)F)cc(S(=O)(=O)C2CC2)c1)c1nc(N)nn1-c1ncccn1 [I-187],100%,–,–,–,100%,100%,90%,–
C[C@H](NC(=O)c1cc(OC(F)(F)F)cc(S(=O)(=O)C2CC2)c1)c1nc(N)nn1-c1ccc(C#N)cn1 [I-205],–,–,100%,–,–,–,90%,–
C[C@H](NC(=O)c1cc(OC(F)(F)F)cc(C2CC2)c1)c1nc(N)nn1-c1ncccn1 [I-216],–,–,100%,–,–,–,90%,–
